Assay results as given in PubChem BioAssay (NCI).
Values joined by “and” are separate entries in the source; they are usually repeats but may differ in a detail not shown here. Equal entries are not always repeated.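 Cultured in 96-well plates, cells were exposed to test compound for 48 hours across five concentrations. Here, GI50 denotes the concentration required for 50% inhibition of growth. The concentration for full growth arrest is given as TGI.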

Columns and labels:
Experiment in all cases: growth of human tumour cells (NCI), 48 h
SNB-19 CNS = tested on: SNB-19 CNS
OVCAR-3 ovarian = tested on: OVCAR-3 ovarian
U251 CNS = tested on: U251 CNS
SF-539 CNS = tested on: SF-539 CNS
SF-295 CNS = tested on: SF-295 CNS
EKVX NSCLC = tested on: EKVX NSCLC
A498 renal = tested on: A498 renal
LOX IMVI melanoma = tested on: LOX IMVI melanoma
MCF7 breast = tested on: MCF7 breast
MDA-MB-435 = tested on: MDA-MB-435

`Cc1nc(Nc2ccc(Cl)cc2)sc1C(=O)NNc1ccc([N+](=O)[O-])cc1[N+](=O)[O-]` showed a TGI (SNB-19 CNS) of 30.4 µM, a TGI (OVCAR-3 ovarian) of 38.7 µM and a TGI (U251 CNS) of 29.5 µM. It also gave a TGI (SF-539 CNS) of 32 µM, a TGI (SF-295 CNS) of 38.5 µM and a TGI (EKVX NSCLC) of 32.6 µM. For the same compound, the TGI (A498 renal) was 30.6 µM and the TGI (LOX IMVI melanoma) was 35.7 µM.

`COc1cccc(-c2cc(=O)c3cc(OC)ccc3[nH]2)c1` was tested, and the GI50 (OVCAR-3 ovarian) was 0.025 µM, the TGI (OVCAR-3 ovarian) was 0.384 µM and 0.0812 µM and the GI50 (U251 CNS) was 0.057 µM. For the same compound, the TGI (U251 CNS) was 3.36 µM and 13.2 µM, the TGI (SF-539 CNS) was 0.451 µM and the GI50 (SF-295 CNS) was 0.292 µM. The GI50 (EKVX NSCLC) was 5.85 µM, the TGI (EKVX NSCLC) was greater than 100 µM and the TGI (A498 renal) was 0.111 µM. It also gave a GI50 (LOX IMVI melanoma) of 0.0624 µM, a GI50 (MCF7 breast) of 0.296 µM and a TGI (MCF7 breast) greater than 100 µM.

`Cc1[nH]c2ccccc2c1C(=O)CC1(O)C(=O)Nc2ccccc21` (configuration not stated) gave a TGI (SNB-19 CNS) greater than 100 µM, a TGI (U251 CNS) greater than 100 µM and a TGI (SF-539 CNS) greater than 100 µM. For the same compound, the TGI (SF-295 CNS) was greater than 100 µM, the TGI (EKVX NSCLC) was greater than 100 µM and the TGI (A498 renal) was greater than 100 µM. It also gave a TGI (LOX IMVI melanoma) greater than 100 µM.

`c1cc(N(CCn2cccn2)CCn2cccn2)cc(N(CCn2cccn2)CCn2cccn2)c1` was tested, and the TGI (SNB-19 CNS) was greater than 100 µM, the TGI (OVCAR-3 ovarian) was greater than 100 µM and the TGI (U251 CNS) was greater than 100 µM. It also gave a TGI (SF-295 CNS) greater than 100 µM, a TGI (EKVX NSCLC) greater than 100 µM and a TGI (A498 renal) greater than 100 µM. It also gave a TGI (LOX IMVI melanoma) greater than 100 µM.

In the case of `CC(=O)[CH-]C(C)=O.CC(=O)[CH-]C(C)=O.[CH2-]CCC.[CH2-]CCC.[Sn+4]`, the GI50 (SNB-19 CNS) is reported as 0.663 µM, the TGI (SNB-19 CNS) is reported as 1.97 µM and the GI50 (OVCAR-3 ovarian) is reported as 0.707 µM. The TGI (OVCAR-3 ovarian) was 1.96 µM, the GI50 (U251 CNS) was 0.304 µM and the TGI (U251 CNS) was 1.06 µM. It also gave a GI50 (SF-539 CNS) of 0.61 µM, a TGI (SF-539 CNS) of 1.91 µM and a GI50 (SF-295 CNS) of 1.45 µM. It also gave a TGI (SF-295 CNS) of 2.8 µM, a GI50 (EKVX NSCLC) of 0.901 µM and a TGI (EKVX NSCLC) of 2.27 µM. The GI50 (A498 renal) was 0.259 µM, the TGI (A498 renal) was 0.73 µM and the GI50 (LOX IMVI melanoma) was 0.174 µM. The TGI (LOX IMVI melanoma) was 0.464 µM.

`CC(C)CC(NC(=O)c1cccc(O)c1O)C(=O)NCc1cc(CNC(=O)C(CC(C)C)NC(=O)c2cccc(O)c2O)cc(CNC(=O)C(CC(C)C)NC(=O)c2cccc(O)c2O)c1` (configuration not stated) showed a TGI (SNB-19 CNS) of 47.3 µM, a TGI (OVCAR-3 ovarian) of 19.7 µM and a TGI (U251 CNS) of 29.5 µM. It also gave a TGI (SF-539 CNS) of 20.9 µM, a TGI (SF-295 CNS) of 38.6 µM and a TGI (EKVX NSCLC) of 69.5 µM. It also gave a TGI (A498 renal) greater than 100 µM and a TGI (LOX IMVI melanoma) of 25.6 µM.

`CC(C)=CC(=O)C/C(=N\NC(N)=S)C(=O)Nc1ccc(Cl)cc1` gave a TGI (SNB-19 CNS) greater than 100 µM, a TGI (OVCAR-3 ovarian) greater than 100 µM and a TGI (U251 CNS) greater than 100 µM. The TGI (SF-539 CNS) was greater than 100 µM, the TGI (SF-295 CNS) was greater than 100 µM and the TGI (EKVX NSCLC) was greater than 100 µM. For the same compound, the TGI (A498 renal) was greater than 100 µM and the TGI (LOX IMVI melanoma) was greater than 100 µM.

`[Cl-].[O-]/N=C(\c1ccccc1)c1ccccn1.[O-]/N=C(\c1ccccc1)c1ccccn1.[O-]/N=C(\c1ccccc1)c1ccccn1.[Sm+3]` gave a GI50 (SNB-19 CNS) of 36 µM, a TGI (SNB-19 CNS) greater than 100 µM and a GI50 (OVCAR-3 ovarian) of 18 µM. The TGI (OVCAR-3 ovarian) was 73.7 µM, the GI50 (U251 CNS) was 38 µM and the TGI (U251 CNS) was greater than 100 µM. It also gave a GI50 (SF-539 CNS) of 28.1 µM, a TGI (SF-539 CNS) of 75.2 µM and a GI50 (SF-295 CNS) of 18.7 µM. For the same compound, the TGI (SF-295 CNS) was 79.9 µM, the GI50 (EKVX NSCLC) was 29.4 µM and the TGI (EKVX NSCLC) was greater than 100 µM. For the same compound, the GI50 (A498 renal) was 58.3 µM, the TGI (A498 renal) was greater than 100 µM and the GI50 (LOX IMVI melanoma) was 22.4 µM. For the same compound, the TGI (LOX IMVI melanoma) was 53.3 µM.

`CCc1cc(Cc2cc(Cl)c(NC(=O)C(=O)C3NC(=O)NC3=O)c(CC)c2)cc(Cl)c1NC(=O)C(=O)C1NC(=O)NC1=O` (configuration not stated) was tested, and the TGI (SNB-19 CNS) was greater than 100 µM, the TGI (OVCAR-3 ovarian) was greater than 100 µM and the TGI (U251 CNS) was 40.1 µM. It also gave a TGI (SF-539 CNS) greater than 100 µM, a TGI (SF-295 CNS) greater than 100 µM and a TGI (EKVX NSCLC) greater than 100 µM. The TGI (A498 renal) was greater than 100 µM and the TGI (LOX IMVI melanoma) was greater than 100 µM.

Compound `CN(C)CC(C)(C)/C(=N\Nc1ccccc1)c1ccccc1` has a TGI (SNB-19 CNS) greater than 100 µM, a TGI (OVCAR-3 ovarian) greater than 100 µM and a TGI (U251 CNS) greater than 100 µM. The TGI (SF-539 CNS) was 63.4 µM, the TGI (SF-295 CNS) was 46.4 µM and the TGI (EKVX NSCLC) was greater than 100 µM. For the same compound, the TGI (A498 renal) was greater than 100 µM and the TGI (LOX IMVI melanoma) was 37.6 µM.

`O=C(O)CCCCCCC[C@H]1S[C@H]1CCCCCCO` gave a TGI (SNB-19 CNS) greater than 100 µM, a TGI (OVCAR-3 ovarian) greater than 100 µM and a TGI (U251 CNS) greater than 100 µM. The TGI (SF-539 CNS) was greater than 100 µM, the TGI (SF-295 CNS) was greater than 100 µM and the TGI (EKVX NSCLC) was greater than 100 µM.

In the case of `C=C(COC(C)=O)CC(OC(C)=O)c1ccccc1` (configuration not stated), the TGI (SNB-19 CNS) is reported as greater than 100 µM, the TGI (OVCAR-3 ovarian) is reported as greater than 100 µM and the TGI (U251 CNS) is reported as greater than 100 µM. It also gave a TGI (SF-539 CNS) greater than 100 µM, a TGI (SF-295 CNS) greater than 100 µM and a TGI (EKVX NSCLC) greater than 100 µM. For the same compound, the TGI (A498 renal) was greater than 100 µM and the TGI (LOX IMVI melanoma) was greater than 100 µM.

`CN1CCCC2(CCCc3ccccc32)C1` (configuration not stated) gave a TGI (OVCAR-3 ovarian) greater than 100 µM, a TGI (U251 CNS) greater than 100 µM and a TGI (SF-539 CNS) greater than 100 µM. It also gave a TGI (SF-295 CNS) greater than 100 µM, a TGI (EKVX NSCLC) greater than 100 µM and a TGI (A498 renal) greater than 100 µM. It also gave a TGI (LOX IMVI melanoma) greater than 100 µM.

With `Cc1cc2c(ccc3c(C)cc(=O)oc32)o1` the TGI (SNB-19 CNS) was greater than 100 µM, the TGI (OVCAR-3 ovarian) was greater than 100 µM and the TGI (U251 CNS) was greater than 100 µM. For the same compound, the TGI (SF-539 CNS) was greater than 100 µM, the TGI (SF-295 CNS) was greater than 100 µM and the TGI (EKVX NSCLC) was greater than 100 µM. It also gave a TGI (LOX IMVI melanoma) greater than 100 µM.

In the case of `COc1cc(-c2cc3ncccc3c3nc(N)c4cccnc4c23)cc(OC)c1OC`, the GI50 (SNB-19 CNS) is reported as 0.737 µM, the TGI (SNB-19 CNS) is reported as greater than 100 µM and the GI50 (OVCAR-3 ovarian) is reported as 0.229 µM. The TGI (OVCAR-3 ovarian) was 2.68 µM, the GI50 (U251 CNS) was 0.553 µM and the TGI (U251 CNS) was 16.9 µM. For the same compound, the GI50 (SF-539 CNS) was 0.361 µM, the TGI (SF-539 CNS) was 2.6 µM and the GI50 (SF-295 CNS) was 0.308 µM. The TGI (SF-295 CNS) was 15.5 µM, the GI50 (EKVX NSCLC) was 0.763 µM and the TGI (EKVX NSCLC) was 50.4 µM. It also gave a GI50 (MDA-MB-435) of 0.0455 µM, a TGI (MDA-MB-435) of 11.2 µM and a GI50 (LOX IMVI melanoma) of 0.482 µM. It also gave a TGI (LOX IMVI melanoma) of 15.7 µM, a GI50 (MCF7 breast) of 0.327 µM and a TGI (MCF7 breast) greater than 100 µM.

`CCC12CCCN(Cc3ccccc3)C1c1c([nH]c3ccccc13)C(C(=O)OC)C2` (configuration not stated) showed a TGI (SNB-19 CNS) greater than 10 µM, a TGI (OVCAR-3 ovarian) greater than 10 µM and a TGI (U251 CNS) greater than 10 µM. The TGI (SF-539 CNS) was greater than 10 µM, the TGI (SF-295 CNS) was greater than 10 µM and the TGI (MDA-MB-435) was greater than 10 µM. It also gave a TGI (LOX IMVI melanoma) greater than 10 µM and a TGI (MCF7 breast) greater than 10 µM.
